# Laboratory results: US5556979A, “7-isoindolinyl-naphthyridone derivatives, compositions and anti-bacterial use thereof” (Bayer Aktiengesellschaft, priority 1992, dated 1996)
# Legend:
# Assay in all cases: Minimum inhibitory concentration (MIC), serial dilution on Iso-Sensitest agar
# Type in all cases: cell-based
# [1] = tested on: Entercoccus faecalis 27 101; details: 37° C., about 20 hours
# Method: (§1) The minimum inhibitory concentrations (MIC) were determined by means of serial dilution methods on Iso-Sensitest agar (Oxoid). For each substance to be tested, a series of agar plates was prepared which contained concentrations of the active compound which decreased by a double dilution on each occasion. The agar plates were inoculated with a Multipoint inoculator (Denley). For the inoculation, overnight cultures of the pathogens were used which had previously been diluted so that each inoculation spot contained about 10^4 colony-forming particles. The inoculated agar plates were incubated at 37° C. and the organism growth was recorded after about 20 hours. The MIC value (μg/ml) indicates the lowest concentration of active compound at which no growth could be detected with the naked eye.
# Providencia sp. 12012 = details: 37° C., about 20 hours
# Method: as §1
# [2] = tested on: Pseudomonas aeruginosa Walter; details: 37° C., about 20 hours
# Method: as §1
# [3] = tested on: Staphylococcus aureus ICB 25701; details: ICB25701, 37° C., about 20 hours
# Method: as §1
# Morganella morg. 932 = details: 37° C., about 20 hours
# Method: as §1
# Micrococcus luteus 9341 = details: 37° C., about 20 hours
# Method: as §1
# [4] = tested on: Staphylococcus aureus 1756; details: 37° C., about 20 hours
# Method: as §1
# [5] = tested on: Enterobacter cloacae 2427; details: 37° C., about 20 hours
# Method: as §1
# E. coli Neumann = details: Escherichia coli, 37° C., about 20 hours
# Method: as §1
# Klebsiella sp. 8085 = details: 37° C., about 20 hours
# Method: as §1
Structure (SMILES),MIC [1] [µg/mL],MIC (Providencia sp. 12012) [µg/mL],MIC [2] [µg/mL],MIC [3] [µg/mL],MIC (Morganella morg. 932) [µg/mL],MIC (Micrococcus luteus 9341) [µg/mL],MIC [4] [µg/mL],MIC [5] [µg/mL],MIC (E. coli Neumann) [µg/mL],MIC (Klebsiella sp. 8085) [µg/mL]
"N[C@@H]1CC=C[C@@H]2CN(c3c(F)cc4c(=O)c(C(=O)O)cn(C5CC5)c4c3F)C[C@@H]12 (relative stereo) [Example 4, (1'SR,2'RS,6'SR)-7-(2'-Amino-8'-azabicyclo[4.3.0]non-4'-en-8'-yl)-1-cyclopropyl-6,8-difluoro-1,4-hydro-4-oxo-3-quinolinecarboxylic acid]",0.15,0.015,0.25,0.03,0.015,0.015,0.0039,0.015,0.0078,0.015
"Nc1cccc2c1CN(c1c(F)cc3c(=O)c(C(=O)O)cn(C4CC4)c3c1F)C2 [*, 7-(4-amino-1,3-dihydro-isoindol-2-yl)-1-cyclopropyl-6,8-difluoro-1,4-dihydro-4-oxo-3-quinolinecarboxylic acid, reference compound]",0.5,1,> 128,,1,,0.03,,0.5,4
"CC1COc2c(N3C[C@H]4[C@H](N)CC=C[C@@H]4C3)c(F)cc3c(=O)c(C(=O)O)cn1c23 (stereo partly drawn) [Example 14, (1'SR,2'RS,6'SR)-10-(2'-Amino-8'-azabicyclo [4.3.0]non-4'-en-8'-yl)-9-fluoro-2,3-dihydro-3-methyl-7-oxo-7H-pyrido[1,2,3-de][1,4]benzoxazine-6-carboxylic acid]",0.03,0.125,1,0.25,0.125,0.125,0.0078,0.125,0.03,0.125

# Continued, values first:
MIC [1] [µg/mL],MIC (Providencia sp. 12012) [µg/mL],MIC [2] [µg/mL],MIC [3] [µg/mL],MIC (Morganella morg. 932) [µg/mL],MIC (Micrococcus luteus 9341) [µg/mL],MIC [4] [µg/mL],MIC [5] [µg/mL],MIC (E. coli Neumann) [µg/mL],MIC (Klebsiella sp. 8085) [µg/mL],Structure (SMILES)
0.03,0.03,0.5,0.125,,0.06,≤ 0.015,0.06,≤ 0.015,0.03,"N[C@@H]1CC=C[C@@H]2CN(c3cc4c(cc3F)c(=O)c(C(=O)O)cn4C3CC3)C[C@@H]12 (relative stereo) [Example 6, (1'SR,2'RS,6'SR)-7-(2'-amino-8'-azahicyclo[4.3.0]non-4'-en-8'-yl)-1-cyclopropyl-6-fluoro-1,4-dihydro-4-oxo-3-quinolinecarboxylic acid]"
0.0078,0.015,0.25,0.015,0.015,0.015,≤ 0.0019,0.015,0.0039,0.015,"N[C@@H]1CC=C[C@@H]2CN(c3c(F)cc4c(=O)c(C(=O)O)cn(C5CC5)c4c3Cl)C[C@@H]12 (relative stereo) [Example 12, (1'SR,2'RS,6'SR)-7-(2'-Amino-8'-azabicyclo[4.3.0]non-4'-en-8'-yl)-8-chloro-1-cyclopropyl-6-fluoro-1,4-dihydro-4-oxo-3-quinolinecarboxylic acid]"
≤ 0.015,≤ 0.015,1,0.03,0.03,0.06,≤ 0.015,0.03,≤ 0.015,0.03,"Nc1c(F)c(N2C[C@H]3[C@H](N)CC=C[C@@H]3C2)c(F)c2c1c(=O)c(C(=O)O)cn2C1CC1 (relative stereo) [Example 19, (1 'SR,2 'RS,6 'SR)-5-Amino-7-(2 '-amino-8 '-azabicyclo[4.3.0]non-4'-en-8'-yl)-1-cyclopropyl-6,8-difluoro-1,4-dihydro-4-oxo-3-quinolinecarboxylic acid]"
0.03,0.125,2,0.125,0.125,0.125,≤ 0.015,0.125,0.03,0.06,"CN[C@@H]1CC=C[C@@H]2CN(c3c(F)cc4c(=O)c(C(=O)O)cn(C5CC5)c4c3F)C[C@H]21 (relative stereo) [Example 22, (1'SR,2'RS,6'SR)-1-Cyclopropyl-6,8-difluoro-1,4-dihydro-7-(2'-methylamino-8'-azabicyclo[4.3-0]non-4'-en-8'-yl)-4-oxo-3-quinolinecarboxylic acid]"
